Source: patent US20260297029A1, “ALKOXY AND CARBAMOYL QUATERNARY AMINE SALTS AS PRODRUGS OF TRYPTAMINES” (priority 2023, published 2026)
Values after ≈ are worked out from the molar mass of the structure shown. Read-outs that look alike come from different tables or passages of the source.

Key:
physchem [1] = assay type: physicochemical; details: FaSSIF, RT, 30 mM DMSO stock, value close to or above 300 μM may mean solubility at or above 300 μM
Procedure: Solubility measurements were taken according to the steps as followed:
2. Preparation of Stock Solution: The stock solution of test compounds was prepared in dimethyl sulfoxide (DMSO) at the concentration of 30 mM. The stock solution of control compound was prepared in DMSO at the concentration of 30 mM. Diclofenac sodium was used as positive control in the assay.
3. Procedures for Solubility Determination: 10 μL stock solution of each compound was placed in order into their proper 96-well rack, followed by adding 990 μL of FaSSIF into each vial of the cap-less Solubility Sample plate. This study was performed in duplicate. One stir stick was added to each vial and then vials were sealed using a molded PTDE/SIL 96-Well Plate Cover. The Solubility Sample plate was transferred to the Thermomixer Comfort plate shaker and incubated at RT for 2 hours with shaking at 1100 rpm. After 2 hours incubation, stir sticks were removed using a big magnet and all samples from the Solubility Sample plate were transferred into the filter plate. All the samples were filtered by using the Vacuum Manifold. An aliquot of 10 μL of the filtered samples were diluted with 980 μL of methanol and 10 μL of DMSO. The dilution factor might be changed according to the solubility value and the LC/MS signal response.
5. Sample Analysis: Samples were analyzed by LC-MS/MS.
[formula] • with DF as the dilution factor.

in vitro = in vitro ADME; details: for Remaining Percentage / remaining at 0.25 h / remaining at 0.5 h / remaining at 1 h / remaining at 2 h: mouse plasma; for Remaining Percentage: 0 min; for remaining at 0.25 h: 15 min; for remaining at 0.25 h / remaining at 0.5 h / remaining at 1 h / remaining at 2 h: read-out: Remaining Percentage; for remaining at 0.5 h: 30 min; for remaining at 1 h: 60 min; for remaining at 2 h: 120 min; for half-life: mouse, plasma
physchem [2] = assay type: physicochemical
Procedure: The half-life of the compounds was measured in PBS (pH 6.5), simulated gastric fluid (SGF) with pepsin, and SGF without pepsin.

serotonin receptors = details: cited from earlier work
[3] = only time points within the initial rate used where fast then slow disappearance, read-out: T1/2
[4] = text statement of Table 4 value, read-out: half-life in mouse plasma
[5] = PBS (pH 6.5), 30 min, read-out: Remaining Percentage
[6] = PBS (pH 6.5), 60 min, read-out: Remaining Percentage
[7] = PBS (pH 6.5), 120 min, read-out: Remaining Percentage
[8] = PBS (pH 6.5), 240 min, read-out: Remaining Percentage
[9] = PBS (pH 6.5), SGF with pepsin, SGF without pepsin
[10] = SGF with pepsin, 30 min, read-out: Remaining Percentage
[11] = SGF with pepsin, 60 min, read-out: Remaining Percentage
[12] = SGF with pepsin, 120 min, read-out: Remaining Percentage
[13] = SGF with pepsin, 240 min, read-out: Remaining Percentage
[14] = SGF with pepsin, if calculated T1/2 < 0, reported as 9999 min, read-out: T1/2
[15] = SGF without pepsin, 30 min, read-out: Remaining Percentage
[16] = SGF without pepsin, 60 min, read-out: Remaining Percentage
[17] = SGF without pepsin, 120 min, read-out: Remaining Percentage
[18] = SGF without pepsin, 240 min, read-out: Remaining Percentage
[19] = SGF without pepsin, if calculated T1/2 < 0, reported as 9999 min, read-out: T1/2

| Structure (SMILES) | solubility kinetic at 2 h (physchem [1]) [µM] | Remaining Percentage (in vitro) [%] | remaining at 0.25 h (in vitro) [%] | remaining at 0.5 h (in vitro) [%] | remaining at 1 h (in vitro) [%] | remaining at 2 h (in vitro) [%] | half-life (in vitro; [3]) [min] | Remaining Percentage (physchem [2]; SGF with pepsin, 0 min) [%] | remaining at 0.5 h (physchem [2]; [10]) [%] | remaining at 1 h (physchem [2]; [11]) [%] | remaining at 2 h (physchem [2]; [12]) [%] | remaining at 4 h (physchem [2]; [13]) [%] | Remaining Percentage (physchem [2]; SGF without pepsin, 0 min) [%] | remaining at 0.5 h (physchem [2]; [15]) [%] | remaining at 1 h (physchem [2]; [16]) [%] | remaining at 2 h (physchem [2]; [17]) [%] | remaining at 4 h (physchem [2]; [18]) [%] | activity at select serotonin receptors (serotonin receptors) | further results |
| --- | --- | --- | --- | --- | --- | --- | --- | --- | --- | --- | --- | --- | --- | --- | --- | --- | --- | --- | --- |
| O=C(O)Cc1ccccc1Nc1c(Cl)cccc1Cl [Diclofenac, reference compound] | 276 (≈ 81.7 µg/mL) | – | – | – | – | – | – | – | – | – | – | – | – | – | – | – | – | – | – |
| CC(C)(C)C(=O)OC[N+](C)(C)CCc1c[nH]c2ccccc12 [Compound 2, 2-(1H-indol-3-y1)-N,N-dimethy1-N-((pivaloyloxy)methyl)ethan-1-aminium] | 314 | 100.00 | 24.4 | 7.66 | 1.13 | 0 | 9.41 | 100.00 | 94.3 | 104 | 96.6 | 96.1 | 100.00 | 90.7 | 97.3 | 104 | 104 | – | half-life (in vitro; [4]): 9.4 min; Remaining Percentage (physchem [2]; PBS (pH 6.5), 0 min): 100.00%; remaining at 0.5 h (physchem [2]; [5]): 97.4%; remaining at 1 h (physchem [2]; [6]): 101%; remaining at 2 h (physchem [2]; [7]): 98.3%; remaining at 4 h (physchem [2]; [8]): 95.3%; Stability in the environment of a stomach and in the presence of pepsin (physchem [2]; [9]): does not degrade in the environment of a stomach nor in the presence of pepsin; half-life (physchem [2]; PBS (pH 6.5), if calculated T1/2 < 0, reported as 9999 min, read-out: T1/2): 63.2 h; half-life (physchem [2]; [14]): 88.8 h |
| CN(C)CCc1c[nH]c2ccccc12 [DMT, N, N-dimethyltryptamine] | – | – | – | – | – | – | – | – | – | – | – | – | – | – | – | – | – | agonists or partial agonists | – |
| CC[C@H]1OC(=O)[C@H](C)[C@@H](O[C@H]2C[C@@](C)(OC)[C@@H](O)[C@H](C)O2)[C@H](C)[C@@H](O[C@@H]2O[C@H](C)C[C@H](N(C)C)[C@H]2O)[C@](C)(O)C[C@@H](C)C(=O)[C@H](C)[C@@H](O)[C@]1(C)O [Erythromycin, reference compound] | – | – | – | – | – | – | – | 100.00 | 52.6 | 30.5 | 9.74 | 1 | 100.00 | 54.5 | 29.1 | 9.44 | 1.05 | – | half-life (physchem [2]; [14]): 0.6 h; half-life (physchem [2]; [19]): 0.61 h |
| CN(C)CCc1c[nH]c2cccc(O)c12 [psilocin, 4-hydroxy-DMT] | – | – | – | – | – | – | – | – | – | – | – | – | – | – | – | – | – | agonists or partial agonists | – |
| CN(C)C(=O)OC[N+](C)(C)CCc1c[nH]c2ccccc12 [Compound 1, N-(((dimethylcarbamoyl)oxy)methyl)-2-(1H-indol-3-yl)-N,N-dimethylethan-1-aminium] | 290 | 100.00 | 97.5 | 92.6 | 90.2 | 58.3 | 156 | 100.00 | 101 | 100 | 97.2 | 108 | 100.00 | 105 | 100 | 104 | 100 | – | half-life (in vitro; [4]): 155 min; Remaining Percentage (physchem [2]; PBS (pH 6.5), 0 min): 100.00%; remaining at 0.5 h (physchem [2]; [5]): 97.7%; remaining at 1 h (physchem [2]; [6]): 108%; remaining at 2 h (physchem [2]; [7]): 107%; remaining at 4 h (physchem [2]; [8]): 108%; Stability in the environment of a stomach and in the presence of pepsin (physchem [2]; [9]): does not degrade in the environment of a stomach nor in the presence of pepsin; half-life (physchem [2]; [19]): 261 h |
| CN(C)CCc1c[nH]c2cccc(OP(=O)(O)O)c12 [psilocybin] | – | – | – | – | – | – | – | – | – | – | – | – | – | – | – | – | – | agonists or partial agonists | – |
| CC(C)[N+](C)(CCOC(=O)C1c2ccccc2Oc2ccccc21)C(C)C [Propantheline, reference compound] | – | 100.00 | 86 | 67.2 | 35 | 8.48 | 32.8 | – | – | – | – | – | – | – | – | – | – | – | – |
| COc1ccc2[nH]cc(CCN(C)C)c2c1 [Compound 5-MeO-DMT, 5-methoxy-DMT] | – | – | – | – | – | – | – | – | – | – | – | – | – | – | – | – | – | – | activity at select serotonin receptors (serotonin receptors; bind select serotonin receptors in the active state): agonists or partial agonists |
| O=C(O)CCCc1ccc(N(CCCl)CCCl)cc1 [Chlorambucil, reference compound] | – | – | – | – | – | – | – | – | – | – | – | – | – | – | – | – | – | – | Remaining Percentage (physchem [2]; pH 6.5): 100.00%; half-life (physchem [2]; pbs, pH 6.5): 0.694 h; remaining at 0.5 h (physchem [2]; pbs, pH 6.5): 59.4%; remaining at 1 h (physchem [2]; pbs, pH 6.5): 37.1%; remaining at 2 h (physchem [2]; pbs, pH 6.5): 13.6%; remaining at 4 h (physchem [2]; pbs, pH 6.5): 1.83% |
